From article PMC5268410, “Mode of Action of the Natural Insecticide, Decaleside Involves Sodium Pump Inhibition” (PLoS ONE, 2017)

Key:
[1] = target: T1, purified Na^+, K^+ -ATPase (porcine cerebral cortex); test: phosphate release from ATP; type: biochemical, Sus scrofa; conditions: 1.5 mM ATP; Na+ 0.14 M, K+ 14 mM, Mg2+ 3 mM; 37°C
T1 construct: gene ATP1A1; commercial native enzyme purified from porcine cerebral cortex (Sigma); with Sodium/potassium-transporting ATPase subunit beta-1; Sodium/potassium-transporting ATPase subunit beta-2

[2] = target: T1, purified Na^+, K^+ -ATPase (porcine cerebral cortex); test: phosphate release from ATP, ouabain-inhibitable activity; type: biochemical, Sus scrofa; conditions: 1.5 mM ATP; Na+ 0.14 M, K+ 14 mM, Mg2+ 3 mM; 37°C; 30 min preincubation; competitive with ATP

IC50 [2] [µM] | Compound | IC50 [1] [µM]
– | C[C@@H]1O[C@@H](O[C@H]2C[C@@H](O)[C@]3(CO)[C@H]4[C@H](O)C[C@]5(C)[C@@H](C6=CC(=O)OC6)CC[C@]5(O)[C@@H]4CC[C@]3(O)C2)[C@H](O)[C@H](O)[C@H]1O [Ouabain] | 254
105 | decaleside I | –
95 | decaleside II | –
